Literature values as cited in patent US20190175504A1, “Carbohydrate-Derivatized Liposomes for Targeting Cellular Carbohydrate Recognition Domains of Ctl/Ctld Lectins, and Intracellular Delivery of Therapeutically Active Compounds” (RODOS BioTarget GmbH, priority 2004, published 2019).

Tests used:
[1] = system: mouse model of liver damage

SMILES	apoptosis in liver damage [1]	pathologic values of liver parameters (e.g., ALT) (HCV-positive patients)	antifibrotic effect (bile duct-ligated mouse)
Cc1ccc(C(=O)Nc2ccc(S(=O)(=O)O)c3cc(S(=O)(=O)O)cc(S(=O)(=O)O)c23)cc1NC(=O)c1cccc(NC(=O)Nc2cccc(C(=O)Nc3cc(C(=O)Nc4ccc(S(=O)(=O)O)c5cc(S(=O)(=O)O)cc(S(=O)(=O)O)c45)ccc3C)c2)c1 [suramin]	inhibit apoptosis	–	–
C[C@H](NC(=O)C(=O)Nc1ccccc1C(C)(C)C)C(=O)N[C@@H](CC(=O)O)C(=O)COc1c(F)c(F)cc(F)c1F [IDN-6556]	–	significantly reduces	proven beneficial as an antifibrotic agent
